Activity calls are given as the source filed them. The rule behind the calls is not given here.
What was measured:
[1] = test system: GTPase KRas (Homo sapiens), P01116 [G12C]; experiment: In vivo target occupancy at KRAS G12C mutant in human MIA PaCa-2 cells xenografted athymic BALB/c nude mouse measured at 30 mins; format: functional, cell-based
[2] = test system: Protein cereblon/GTPase KRas (Homo sapiens), P01116+Q96SW2 [G12C]; experiment: Protac activity at CRBN/KRAS G12C mutant in human NCI-H358 cells assessed as induction of KRAS G12C protein degradation at 10 uM preincubated for 1 hr with proteasome inhibitor, MG-132 followed by compound addition and measured after 24 hrs by Western blot analysis; format: cell-based
MIA PaCa-2 [3] = experiment: Antiproliferative activity against human MIA PaCa-2 cells harboring KRAS G12C mutant assessed as inhibition of cell proliferation incubated for 48 hrs by MTT assay; format: functional, cell-based; settings: MIA PaCa-2, 48 h
NCI-H358 [4] = experiment: Antiproliferative activity against human NCI-H358 cells harboring KRAS G12C mutant assessed as inhibition of cell proliferation incubated for 48 hrs by MTT assay; format: functional, cell-based; settings: NCI-H358, 48 h
[5] = test system: Protein cereblon/GTPase KRas (Homo sapiens), P01116+Q96SW2 [G12C]; experiment: Protac activity at CRBN/KRAS G12C mutant in human NCI-H358 cells assessed as induction of KRAS G12C protein degradation at 1 uM incubated for 24 hrs by Western blot analysis; format: cell-based
[6] = test system: von Hippel-Lindau disease tumor suppressor/GTPase KRas (Homo sapiens), P01116+P40337 [G12C]; experiment: Protac activity at VHL/KRAS G12C mutant in human NCI-H358 cells assessed as induction of KRAS G12C protein degradation at 10 uM preincubated for 1 hr with proteasome inhibitor, MG-132 followed by compound addition and measured after 24 hrs by Western blot analysis; format: cell-based
[7] = test system: von Hippel-Lindau disease tumor suppressor/GTPase KRas (Homo sapiens), P01116+P40337 [G12C]; experiment: Protac activity at VHL/KRAS G12C mutant in human NCI-H358 cells assessed as induction of KRAS G12C protein degradation at 1 uM incubated for 24 hrs by Western blot analysis; format: cell-based
NCI-H358 [8] = experiment: Inhibition of ERK phosphorylation in human NCI-H358 cells at 1 to 10 uM incubated for 24 hrs by Western blot analysis; format: cell-based; settings: dose 1-10 µM
[9] = test system: von Hippel-Lindau disease tumor suppressor/GTPase KRas (Homo sapiens), P01116+P40337 [G12C]; experiment: Protac activity at VHL/KRAS G12C mutant in human NCI-H358 cells assessed as induction of KRAS G12C protein degradation at 10 uM incubated for 24 hrs by Western blot analysis; format: cell-based
NCI-H358 [10] = experiment: Antiproliferative activity against human NCI-H358 cells harboring KRAS G12C mutant assessed as inhibition of cell growth; format: functional, cell-based
MIA PaCa-2 [11] = experiment: Antiproliferative activity against human MIA PaCa-2 cells harboring KRAS G12C mutant assessed as inhibition of cell growth; format: functional, cell-based
[12] = test system: von Hippel-Lindau disease tumor suppressor/GTPase KRas (Homo sapiens), P01116+P40337 [G12C]; experiment: Protac activity at VHL/KRAS G12C mutant in human NCI-H358 cells assessed as induction of KRAS G12C protein degradation incubated for 24 hrs by Western blot analysis; format: cell-based; settings: dose 5-25 µM
GTPase KRas = GTPase KRas (Homo sapiens, UniProt P01116, G12C); experiment: Induction of KRAS G12C degradation in human MIA PaCa-2 cells assessed as reduction in KRAS G12C protein level incubated for 24 hrs by immunoblotting analysis; format: cell-based
NCI-H358 [13] = experiment: Antiproliferative activity against human NCI-H358 cells harboring KRAS G12C mutant assessed as inhibition of cell growth incubated for 5 days by celltiter-glow luminescent cell viability assay; format: functional, cell-based; settings: NCI-H358, 120 h
MIA PaCa-2 [14] = experiment: Antiproliferative activity against human MIA PaCa-2 cells harboring KRAS G12C mutant assessed as inhibition of cell growth incubated for 5 days by celltiter-glow luminescent cell viability assay; format: functional, cell-based; settings: MIA PaCa-2, 120 h

Sequence of GTPase KRas (Homo sapiens), P01116 [G12C] (P01116 whole entry G12C): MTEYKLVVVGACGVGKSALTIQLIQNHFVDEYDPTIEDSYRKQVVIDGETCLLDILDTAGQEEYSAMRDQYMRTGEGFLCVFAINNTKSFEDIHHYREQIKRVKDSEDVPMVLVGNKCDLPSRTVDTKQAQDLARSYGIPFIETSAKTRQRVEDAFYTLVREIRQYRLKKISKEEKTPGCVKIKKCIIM
Sequence of GTPase KRas (P01116 whole entry G12C): as above

C=CC(=O)N1CCN(c2ncnc3c(F)c(-c4c(O)cccc4F)c(Cl)cc23)CC1
Occ [1]: > 75%

C=CC(=O)N1CCN(c2nc(=O)n(-c3ccc(C(=O)NCCCC(=O)Nc4cccc5c4CN(C4CCC(=O)NC4=O)C5=O)cc3C(C)C)c3cc(-c4ccccc4Cl)c(Cl)cc23)[C@@H](C)C1 (some centres not stated)
Activity [2]: inactive | IC50 (MIA PaCa-2 [3]): 17.1 µM | IC50 (NCI-H358 [4]): 22.7 µM | Activity [5]: inactive

C=CC(=O)N1CCN(c2nc(=O)n(-c3ccc(C(=O)O)cc3C(C)C)c3cc(-c4ccccc4Cl)c(Cl)cc23)[C@@H](C)C1
IC50 (MIA PaCa-2 [3]): > 10 µM | IC50 (NCI-H358 [4]): > 10 µM

C=CC(=O)N1CCN(c2nc(=O)n(-c3ccc(C(=O)NCc4cn(CCOCCOCCOCCOCC(=O)N[C@H](C(=O)N5C[C@H](O)C[C@H]5C(=O)NCc5ccc(-c6scnc6C)cc5)C(C)(C)C)nn4)cc3C(C)C)c3cc(-c4ccccc4Cl)c(Cl)cc23)[C@@H](C)C1
IC50 (MIA PaCa-2 [3]): 24.3 µM | IC50 (NCI-H358 [4]): 17.1 µM | Activity [6]: inactive | Activity [7]: inactive | inhibition (NCI-H358 [8]): Active | Activity [9]: Active

C=C(F)C(=O)N1CCN(c2nc(OC[C@@H]3CCCN3C)nc3c2CCN(c2cccc4cccc(Cl)c24)C3)C[C@@H]1CC#N [ADAGRASIB]
IC50 (NCI-H358 [10]): 0.001 µM

C=CC(=O)N1CCN(c2nc(=O)n(-c3ccc(C(=O)NCCCCCC(=O)N[C@H](C(=O)N4C[C@H](O)C[C@H]4C(=O)NCc4ccc(-c5scnc5C)cc4)C(C)(C)C)cc3C(C)C)c3cc(-c4ccccc4Cl)c(Cl)cc23)[C@@H](C)C1
IC50 (MIA PaCa-2 [3]): 24.2 µM | IC50 (NCI-H358 [4]): 14.2 µM | Activity [6]: inactive | Activity [7]: inactive | Activity [9]: Active

C=CC(=O)N1CCN(c2nc(=O)n(-c3c(C)ccnc3C(C)C)c3nc(-c4c(O)cccc4F)c(F)cc23)[C@@H](C)C1 [SOTORASIB]
IC50 (MIA PaCa-2 [11]): 0.022 µM

C=CC(=O)N1CCN(c2nc(=O)n(-c3ccc(C(=O)NCCOCCOCCOCCOCC(=O)N[C@H](C(=O)N4C[C@H](O)C[C@H]4C(=O)NCc4ccc(-c5scnc5C)cc4)C(C)(C)C)cc3C(C)C)c3cc(-c4ccccc4Cl)c(Cl)cc23)[C@@H](C)C1
Activity [12]: Dose-Dependent Effect | IC50 (MIA PaCa-2 [3]): 17.9 µM | IC50 (NCI-H358 [4]): 11.1 µM | Activity [6]: inactive | Activity [7]: inactive | inhibition (NCI-H358 [8]): Active | Activity [9]: Active

C=CC(=O)N1CCN(c2nc(=O)n(-c3ccccc3C(C)C)c3cc(-c4ccccc4Cl)c(Cl)cc23)[C@@H](C)C1
IC50 (MIA PaCa-2 [3]): 0.77 µM | IC50 (NCI-H358 [4]): 1.48 µM

C=C(F)C(=O)N1CCN(c2nc(OC[C@@H]3CCCN3CCCOCCC(=O)N[C@H](C(=O)N3C[C@H](O)C[C@H]3C(=O)NCc3ccc(-c4scnc4C)cc3)C(C)(C)C)nc3c2CCN(c2cccc4cccc(Cl)c24)C3)C[C@@H]1CC#N
EC50 (GTPase KRas): 0.32 µM

C=CC(=O)N1CCN(c2nc(NCCCN3CCN(CCCNc4cccc5c4C(=O)N(C4CCC(=O)NC4=O)C5=O)CC3)nc3c(F)c(-c4cc(O)cc5ccccc45)c(Cl)cc23)CC1 (configuration not stated)
IC50 (NCI-H358 [13]): 0.51 µM | IC50 (MIA PaCa-2 [14]): 4.14 µM
